Measurements reported in PubChem BioAssay (NCI).
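Briefly, cells in 96-well plates were exposed to five compound concentrations for 48 h, and endpoints were estimated by linear interpolation. TGI denotes the concentration required for complete inhibition of growth.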

Assays:
Assay in all cases: inhibition of tumour cell growth, NCI panel, 48 h
NCI-H226 lung = test system: NCI-H226 lung
CCRF-CEM leukemia = test system: CCRF-CEM leukemia
KM12 colon = test system: KM12 colon
RXF-631 renal = test system: RXF-631 renal
XF 498 CNS = test system: XF 498 CNS
CAKI-1 renal = test system: CAKI-1 renal
A549 NSCLC = test system: A549 NSCLC
SK-MEL-5 melanoma = test system: SK-MEL-5 melanoma
RPMI-8226 leukemia = test system: RPMI-8226 leukemia
HCT-15 colon = test system: HCT-15 colon
SW-620 colon = test system: SW-620 colon
DLD-1 colon = test system: DLD-1 colon
OVCAR-3 ovarian = test system: OVCAR-3 ovarian
HCC-2998 colon = test system: HCC-2998 colon
NCI-H460 lung = test system: NCI-H460 lung
HT29 colon = test system: HT29 colon
K-562 leukemia = test system: K-562 leukemia
SNB-75 CNS = test system: SNB-75 CNS
UACC-62 melanoma = test system: UACC-62 melanoma
SF-268 CNS = test system: SF-268 CNS
UO-31 renal = test system: UO-31 renal
NCI-H23 lung = test system: NCI-H23 lung
COLO 205 colon = test system: COLO 205 colon
IGROV1 ovarian = test system: IGROV1 ovarian
MOLT-4 leukemia = test system: MOLT-4 leukemia
A498 renal = test system: A498 renal
SN12C renal = test system: SN12C renal
786-0 renal = test system: 786-0 renal
LOX IMVI melanoma = test system: LOX IMVI melanoma
MALME-3M melanoma = test system: MALME-3M melanoma
U251 CNS = test system: U251 CNS
M19-MEL melanoma = test system: M19-MEL melanoma
OVCAR-5 ovarian = test system: OVCAR-5 ovarian
ACHN renal = test system: ACHN renal
M14 melanoma = test system: M14 melanoma
OVCAR-4 ovarian = test system: OVCAR-4 ovarian
SK-OV-3 ovarian = test system: SK-OV-3 ovarian
HL-60(TB) leukemia = test system: HL-60(TB) leukemia
TK-10 renal = test system: TK-10 renal
RXF 393 renal = test system: RXF 393 renal
SNB-78 CNS = test system: SNB-78 CNS
HOP-18 NSCLC = test system: HOP-18 NSCLC
DMS 114 small cell lung = test system: DMS 114 small cell lung
SF-295 CNS = test system: SF-295 CNS
EKVX NSCLC = test system: EKVX NSCLC
SNB-19 CNS = test system: SNB-19 CNS
OVCAR-8 ovarian = test system: OVCAR-8 ovarian
SK-MEL-2 melanoma = test system: SK-MEL-2 melanoma
DMS 273 small cell lung = test system: DMS 273 small cell lung
KM20L2 colon = test system: KM20L2 colon
SK-MEL-28 melanoma = test system: SK-MEL-28 melanoma
UACC-257 melanoma = test system: UACC-257 melanoma

CC(=O)Nc1ccc(S(=O)(=O)N/N=C/c2cc(I)cc([N+](=O)[O-])c2O)cc1
TGI (NCI-H226 lung): > 100 µM | TGI (CCRF-CEM leukemia): > 100 µM | TGI (KM12 colon): > 100 µM | TGI (RXF-631 renal): > 100 µM | TGI (XF 498 CNS): 74.6 µM | TGI (CAKI-1 renal): > 100 µM | TGI (A549 NSCLC): > 100 µM | TGI (SK-MEL-5 melanoma): > 100 µM | TGI (RPMI-8226 leukemia): > 100 µM | TGI (HCT-15 colon): > 100 µM | TGI (SW-620 colon): > 100 µM | TGI (DLD-1 colon): > 100 µM | TGI (OVCAR-3 ovarian): > 100 µM | TGI (HCC-2998 colon): > 100 µM | TGI (NCI-H460 lung): > 100 µM | TGI (HT29 colon): > 100 µM | TGI (K-562 leukemia): > 100 µM | TGI (SNB-75 CNS): 91.6 µM | TGI (UACC-62 melanoma): 90.9 µM | TGI (SF-268 CNS): > 100 µM | TGI (UO-31 renal): > 100 µM | TGI (NCI-H23 lung): 85 µM | TGI (COLO 205 colon): > 100 µM | TGI (IGROV1 ovarian): > 100 µM | TGI (MOLT-4 leukemia): > 100 µM | TGI (A498 renal): > 100 µM | TGI (SN12C renal): > 100 µM | TGI (786-0 renal): > 100 µM | TGI (LOX IMVI melanoma): > 100 µM | TGI (MALME-3M melanoma): > 100 µM | TGI (U251 CNS): > 100 µM | TGI (M19-MEL melanoma): > 100 µM | TGI (OVCAR-5 ovarian): > 100 µM | TGI (ACHN renal): > 100 µM | TGI (M14 melanoma): > 100 µM | TGI (OVCAR-4 ovarian): > 100 µM | TGI (SK-OV-3 ovarian): > 100 µM | TGI (HL-60(TB) leukemia): > 100 µM | TGI (TK-10 renal): > 100 µM | TGI (RXF 393 renal): 85.2 µM | TGI (SNB-78 CNS): > 100 µM | TGI (HOP-18 NSCLC): 96.5 µM | TGI (DMS 114 small cell lung): > 100 µM | TGI (SF-295 CNS): > 100 µM | TGI (EKVX NSCLC): > 100 µM | TGI (SNB-19 CNS): > 100 µM | TGI (OVCAR-8 ovarian): > 100 µM | TGI (SK-MEL-2 melanoma): > 100 µM | TGI (DMS 273 small cell lung): > 100 µM | TGI (KM20L2 colon): > 100 µM | TGI (SK-MEL-28 melanoma): 98.7 µM | TGI (UACC-257 melanoma): > 100 µM
